{"source": "patent US10065950B2", "about": "“Substituted thiazoles as HIV integrase inhibitors” (Japan Tobacco Inc., priority 2010, dated 2018)", "data": [{"biological_target": "HIV-1 pNL4-3 integrase (Human immunodeficiency virus type 1 group M subtype B (isolate NY5) (HIV-1), UniProt P12497)", "assay": "Determination of enzyme (HIV integrase) inhibitory activity", "assay_type": "biochemical", "conditions": "calculated from inhibition rate (fluorescence)", "description": "The following explains evaluation methods of the HIV integrase inhibitory activity of the compound of the present invention.\nA full-length gene sequence (Accession No.: M19921) of HIV-1 pNL4-3 integrase was inserted into restriction enzyme Nde I and Xho I sites of plasmid pET21a(+) (manufactured by Novagen) to construct an integrase expression vector pET21a-IN-Wild type.\nEscherichia coli recombinant BL21(DE3) transformed with plasmid pET21a-IN-Wild type obtained in (i) was shake cultured at 30° C. in a liquid medium containing ampicillin. When the culture reached the logarithmic growth phase, isopropyl-β-D-thiogalactopyranoside was added to promote expression of integrase gene. The culture was continued for 5 hr to promote accumulation of the integrase protein. The recombinant E. coli was collected in pellets by centrifugal separation and preserved at −80° C.\nThis Escherichia coli was suspended in Lysis buffer (50 mM Tris-HCl (pH 7.6), 10 mM MgCl2, 5 mM DTT), and disrupted by repeating treatments of pressurization and depressurization, and insoluble fraction was collected by centrifugation at 4° C., 18,000 rpm for 60 min. This was suspended in Lysis buffer containing a protease inhibitor, […] and 10 mM CHAPS were added, and the mixture was stirred at 4° C. for 30 min. Water-soluble fraction was collected by centrifugation at 4° C., 9,000 rpm for 30 min. The obtained fraction was diluted with a column buffer (50 mM Tris-HCl (pH 7.6), 1 mM DTT, 10% Glycerol, 10 mM CHAPS) to 5-fold, and the mixture was applied to heparin column (HiPrep 16/10 Heparin FF column: manufactured by GE Healthcare Bio-Sciences). Using a column buffer containing 1M NaCl, a protein was eluted with 0-1M NaCl concentration gradient, and an eluted fraction containing an integrase protein was collected. The obtained fraction was diluted 5-fold with a column buffer (50 mM Tris-HCl (pH 7.6), 1 mM DTT, 10% Glycerol, 10 mM CHAPS), and the mixture was applied to cation exchange column (Mono-S column: manufactured by GE Healthcare Bio-Sciences). Using a column buffer containing 1M NaCl, a protein was eluted with 0-1M NaCl concentration gradient, and an eluted fraction containing an integrase protein was collected. The obtained fractions of the integrase protein were collected, and preserved at −80° C.\nThe following DNA synthesized by FASMAC was dissolved in TE buffer (10 mM Tris-hydrochloric acid (pH 8.0), 1 mM EDTA) and mixed with donor DNA, target DNA, and each complementary strand (+ and − strands) to 1 μM. The mixture was heated at 95° C. for 5 min, 80° C. for 10 min, 70° C. for 10 min, 60° C. for 10 min, 50° C. for 10 min and 40° C. for 10 min and kept at 25° C. to give a double stranded DNA, which was used for the test.\nDonor DNA (+strand having biotin attached to the 5′ terminal)\nTarget DNA (+, − strands both having digoxigenin attached to the 3′ terminal)\nThe donor DNA was diluted with TE buffer to 20 nM, of which 50 μL was added to each well of streptavidin-coated black plate (manufactured by PIAS Corporation) and allowed to adsorb at 37° C. for 20 min. The plate was washed with phosphate buffer (Dulbecco's PBS, Sanko Junyaku Co., Ltd.) containing 0.1% Tween 20 and phosphate buffer. Then, an enzyme reaction mixture (70 μL), a test substance (10 μL) diluted with the enzyme reaction mixture and 0.75 μM integrase protein (10 μL) were added to each well and the mixture was reacted at 37° C. for 60 min. composition of enzyme reaction mixture: 30 mM MOPS (3-morpholinopropanesulfonic acid), 5 mM magnesium chloride, 3 mM DTT (dithiothreitol), 0.1 mg/mL BSA (bovine serum albumin), 5% glycerol, 10% DMSO (dimethyl sulfoxide), 0.01% Tween 20.\nThen, 25 nM target DNA (10 μL) was added, and the mixture was reacted at 37° C. for 20 min and washed with phosphate buffer containing 0.1% Tween 20 to stop the reaction. […]", "units": {"IC50": "nM"}, "values": [{"smiles": "CCC(=O)NCC1CN(C(C)C)C(=O)c2c(O)c(=O)c(-c3ncc(Cc4ccc(F)cc4F)s3)cn21", "note": "(stereo not shown) [Example 68]", "IC50": 9.8}, {"smiles": "CC(C)C(=O)NCC1CN(C(C)C)C(=O)c2c(O)c(=O)c(-c3ncc(Cc4ccc(F)cc4F)s3)cn21", "note": "(stereo not shown) [Example 69]", "IC50": 13}, {"smiles": "CC1(C)Cn2cc(-c3nnc(Cc4ccc(F)cc4F)s3)c(=O)c(O)c2C(=O)N1C1CCOC1", "note": "(stereo not shown) [Example 70]", "IC50": 8.9}, {"smiles": "CC(C)N1CC(CC(=O)NC2CC2)n2cc(-c3ncc(Cc4ccc(F)cc4F)s3)c(=O)c(O)c2C1=O", "note": "(stereo not shown) [Example 71]", "IC50": 11}, {"smiles": "CC(C)N1CC(CC(=O)N2CCOCC2)n2cc(-c3ncc(Cc4ccc(F)cc4F)s3)c(=O)c(O)c2C1=O", "note": "(stereo not shown) [Example 72]", "IC50": 11}, {"smiles": "COCCN(C)C(=O)CC1CN(C(C)C)C(=O)c2c(O)c(=O)c(-c3ncc(Cc4ccc(F)cc4F)s3)cn21", "note": "(stereo not shown) [Example 73]", "IC50": 7.7}, {"smiles": "CC(C)N1C(=O)c2c(O)c(=O)c(-c3nnc(Cc4ccc(F)cc4F)s3)cn2CC1CC(=O)O", "note": "(stereo not shown) [Example 74]", "IC50": 5.7}, {"smiles": "CC(C)N1C(=O)c2c(O)c(=O)c(-c3nnc(Cc4ccc(F)cc4F)s3)cn2CC1CC(=O)N(C)C", "note": "(stereo not shown) [Example 75]", "IC50": 9.1}, {"smiles": "CCN(C)C(=O)CC1CN(C(C)C)C(=O)c2c(O)c(=O)c(-c3ncc(Cc4ccc(F)cc4F)s3)cn21", "note": "(stereo not shown) [Example 76]", "IC50": 8.3}, {"smiles": "CCN(CC)C(=O)CC1CN(C(C)C)C(=O)c2c(O)c(=O)c(-c3ncc(Cc4ccc(F)cc4F)s3)cn21", "note": "(stereo not shown) [Example 77]", "IC50": 11}, {"smiles": "CC(C)N1CC(CNS(C)(=O)=O)n2cc(-c3ncc(Cc4ccc(F)cc4F)s3)c(=O)c(O)c2C1=O", "note": "(stereo not shown) [Example 78]", "IC50": 8.9}, {"smiles": "CC(C)N1CC(C#N)n2cc(-c3ncc(Cc4ccc(F)cc4F)s3)c(=O)c(O)c2C1=O", "note": "(stereo not shown) [Example 79]", "IC50": 6.4}, {"smiles": "CC(=O)N(C)CC1CN(C(C)C)C(=O)c2c(O)c(=O)c(-c3ncc(Cc4ccc(F)cc4F)s3)cn21", "note": "(stereo not shown) [Example 80]", "IC50": 9.8}, {"smiles": "CNC(=O)CC1Cn2cc(-c3nnc(Cc4ccc(F)cc4F)s3)c(=O)c(O)c2C(=O)N1C(C)C", "note": "(stereo not shown) [Example 81]", "IC50": 7.5}, {"smiles": "CC(C)N1C(=O)c2c(O)c(=O)c(-c3nnc(Cc4ccc(F)cc4F)s3)cn2CC1CC#N", "note": "(stereo not shown) [Example 82]", "IC50": 4.9}, {"smiles": "COCCOC[C@@H]1Cn2cc(-c3nnc(Cc4ccc(F)cc4)s3)c(=O)c(O)c2C(=O)N1C(C)C", "note": "[Example 83]", "IC50": 7.1}, {"smiles": "COCCOC[C@@H]1Cn2cc(-c3nnc(Cc4ccc(F)cc4)s3)c(=O)c(O)c2C(=O)N1C1CCC1", "note": "[Example 84]", "IC50": 11}, {"smiles": "COC[C@H]1CN(C(C)C)C(=O)c2c(O)c(=O)c(-c3nnc(Cc4ccc(F)cc4F)s3)cn21", "note": "[Example 85]", "IC50": 7.5}, {"smiles": "COCCOC[C@H]1CN(C2CCC2)C(=O)c2c(O)c(=O)c(-c3nnc(Cc4ccc(F)cc4F)s3)cn21", "note": "[Example 86]", "IC50": 9.5}, {"smiles": "COC[C@@H]1CN(C(C)C)C(=O)c2c(O)c(=O)c(-c3nnc(Cc4ccc(F)cc4F)s3)cn21", "note": "[Example 87]", "IC50": 7.7}, {"smiles": "COC[C@@H]1CN(C(C)C)C(=O)c2c(O)c(=O)c(-c3nnc(Cc4ccc(F)cc4)s3)cn21", "note": "[Example 88]", "IC50": 8.7}, {"smiles": "CCN1C[C@@H](COC)n2cc(-c3nnc(Cc4ccc(F)cc4F)s3)c(=O)c(O)c2C1=O", "note": "[Example 89]", "IC50": 8}, {"smiles": "CC(C)N1C(=O)c2c(O)c(=O)c(-c3nnc(Cc4ccc(F)cc4F)s3)cn2CC1CCO", "note": "(stereo not shown) [Example 90]", "IC50": 6.7}, {"smiles": "COC[C@H]1CN(C2CCC2)C(=O)c2c(O)c(=O)c(-c3nnc(Cc4ccc(F)cc4)s3)cn21", "note": "[Example 92]", "IC50": 8.7}, {"smiles": "COC[C@@H]1Cn2cc(-c3nnc(Cc4ccc(F)cc4F)s3)c(=O)c(O)c2C(=O)N1C1CCC1", "note": "[Example 93]", "IC50": 7.8}, {"smiles": "CC(C)N1CC(C)(C(=O)N2CCC2)n2cc(-c3ncc(Cc4ccc(F)cc4F)s3)c(=O)c(O)c2C1=O", "note": "(stereo not shown) [Example 94]", "IC50": 8.8}, {"smiles": "COC[C@H]1Cn2cc(-c3nnc(Cc4ccc(F)cc4)s3)c(=O)c(O)c2C(=O)N1C(C)C", "note": "[Example 95]", "IC50": 9.5}, {"smiles": "COC[C@H]1Cn2cc(-c3nnc(Cc4ccc(F)cc4F)s3)c(=O)c(O)c2C(=O)N1C(C)C", "note": "[Example 96]", "IC50": 6.7}, {"smiles": "CCN1C[C@H](COC)n2cc(-c3nnc(Cc4ccc(F)cc4F)s3)c(=O)c(O)c2C1=O", "note": "[Example 97]", "IC50": 6.6}, {"smiles": "COC[C@H]1Cn2cc(-c3nnc(Cc4ccc(F)cc4F)s3)c(=O)c(O)c2C(=O)N1C1CCC1", "note": "[Example 98]", "IC50": 7.5}, {"smiles": "COC[C@@H]1Cn2cc(-c3nnc(Cc4ccc(F)cc4F)s3)c(=O)c(O)c2C(=O)N1C(C)C", "note": "[Example 99]", "IC50": 6.1}, {"smiles": "CC(C)N1C(=O)c2c(O)c(=O)c(-c3nnc(Cc4ccc(F)cc4F)s3)cn2CC12CCOCC2", "note": "[Example 100]", "IC50": 8.1}, {"smiles": "CC(C)N1CC(CS(C)(=O)=O)n2cc(-c3ncc(Cc4ccc(F)cc4F)s3)c(=O)c(O)c2C1=O", "note": "(stereo not shown) [Example 101]", "IC50": 6.4}, {"smiles": "CCN1C(=O)c2c(O)c(=O)c(-c3nnc(Cc4ccc(F)cc4F)s3)cn2C[C@H]1COC", "note": "[Example 102]", "IC50": 7.1}, {"smiles": "COCC1(C)CN(C(C)C)C(=O)c2c(O)c(=O)c(-c3ncc(Cc4ccc(F)cc4)s3)cn21", "note": "(stereo not shown) [Example 103]", "IC50": 18}, {"smiles": "CNC(=O)C1(C)CN(C(C)C)C(=O)c2c(O)c(=O)c(-c3ncc(Cc4ccc(F)cc4)s3)cn21", "note": "(stereo not shown) [Example 104]", "IC50": 15}, {"smiles": "CCNC(=O)C1(C)CN(C(C)C)C(=O)c2c(O)c(=O)c(-c3ncc(Cc4ccc(F)cc4)s3)cn21", "note": "(stereo not shown) [Example 105]", "IC50": 17}, {"smiles": "CC(C)NC(=O)C1(C)CN(C(C)C)C(=O)c2c(O)c(=O)c(-c3ncc(Cc4ccc(F)cc4)s3)cn21", "note": "(stereo not shown) [Example 106]", "IC50": 20}, {"smiles": "CC(C)N1CC(C)(C(=O)N(C)C)n2cc(-c3ncc(Cc4ccc(F)cc4)s3)c(=O)c(O)c2C1=O", "note": "(stereo not shown) [Example 107]", "IC50": 19}, {"smiles": "CC(C)N1CC(C)(C(=O)N2CCCCC2)n2cc(-c3ncc(Cc4ccc(F)cc4)s3)c(=O)c(O)c2C1=O", "note": "(stereo not shown) [Example 108]", "IC50": 18}, {"smiles": "CC(C)N1CC(C)(C(=O)N2CCCC2)n2cc(-c3ncc(Cc4ccc(F)cc4)s3)c(=O)c(O)c2C1=O", "note": "(stereo not shown) [Example 109]", "IC50": 21}, {"smiles": "COCCOCC1(C)CN(C(C)C)C(=O)c2c(O)c(=O)c(-c3ncc(Cc4ccc(F)cc4)s3)cn21", "note": "(stereo not shown) [Example 110]", "IC50": 23}, {"smiles": "CC(C)N1CC(C)(CO)n2cc(-c3ncc(Cc4ccc(F)cc4)s3)c(=O)c(O)c2C1=O", "note": "(stereo not shown) [Example 111]", "IC50": 20}, {"smiles": "CC(C)N1CC(C)(C(=O)O)n2cc(-c3ncc(Cc4ccc(F)cc4)s3)c(=O)c(O)c2C1=O", "note": "(stereo not shown) [Example 112]", "IC50": 19}, {"smiles": "CCN1C(=O)c2c(O)c(=O)c(-c3nnc(Cc4ccc(F)cc4)s3)cn2C[C@@H]1COC", "note": "[Example 113]", "IC50": 13}, {"smiles": "CCN1C(=O)c2c(O)c(=O)c(-c3nnc(Cc4ccc(F)cc4F)s3)cn2C[C@@H]1COC", "note": "[Example 114]", "IC50": 8.1}, {"smiles": "O=C1c2c(O)c(=O)c(-c3nnc(Cc4ccc(F)cc4)s3)cn2CC(CO)N1C1CC1", "note": "(stereo not shown) [Example 115]", "IC50": 12}, {"smiles": "COC[C@H]1CN(CC2CC2)C(=O)c2c(O)c(=O)c(-c3nnc(Cc4ccc(F)cc4)s3)cn21", "note": "[Example 116]", "IC50": 9.6}, {"smiles": "COC[C@H]1CN(CC2CC2)C(=O)c2c(O)c(=O)c(-c3nnc(Cc4ccc(F)cc4F)s3)cn21", "note": "[Example 117]", "IC50": 9.4}, {"smiles": "COCCOC[C@H]1CN(CC2CC2)C(=O)c2c(O)c(=O)c(-c3nnc(Cc4ccc(F)cc4)s3)cn21", "note": "[Example 118]", "IC50": 13}, {"smiles": "COCCOC[C@H]1CN(CC2CC2)C(=O)c2c(O)c(=O)c(-c3nnc(Cc4ccc(F)cc4F)s3)cn21", "note": "[Example 119]", "IC50": 11}, {"smiles": "COCCOC[C@H]1Cn2cc(-c3nnc(Cc4ccc(F)cc4)s3)c(=O)c(O)c2C(=O)N1C(C)C", "note": "[Example 120]", "IC50": 15}]}]}
